The values below are quoted from earlier work in patent US9526701B2, “Sustained drug release and improved product stability using non-covalent particle coating methods” (priority 2011, dated 2016).

SMILES strings stand for the structures.

For this data set the following is noted: for half life in the blood: following administration; for bioavailability: oral administration.

For `N[C@@H](Cc1cc(I)c(Oc2cc(I)c(O)c(I)c2)c(I)c1)C(=O)O` [Example T4, 3,5,3′,5′-tetraiodo-L-thyronine], the “half life in the blood” value is on record as “greater than 7 days” and the bioavailability was 45-65%.
With `N[C@@H](Cc1cc(I)c(Oc2ccc(O)c(I)c2)c(I)c1)C(=O)O` [Example T3, 3,5,3′-triiodo-L-thyronine], the “half life in the blood” value is 20 to 30 h and the bioavailability result is “greater than 95%”.
